This passage reports IC50 results from patent US9714249B2 (Novartis AG, priority 2013, dated 2017).

In general, IC50 refers to the midpoint of a concentration-inhibition curve. Read a low IC50 as greater potency.

The target in one test is BRD4-NUT-fusion (Homo sapiens (Human), UniProt O60885+Q86Y26). Description: Nut-foci formation assay (HCS) in HCC2494 NUT midline carcinoma cells. It is filed as cell-based. To be noted: 24 hours, nuclear BRD4-NUT foci, immunofluorescence. How it is done: Compound-mediated inhibition of BRD4 activity was monitored by quantification of the number and intensity of nuclear BRD4-NUT foci using automated immunofluorescence microscopy. Briefly, 5000 cells in 20 μl fresh medium were seeded into Poly-D-Lysine-precoated 384-well plates and incubated overnight at 37° C. and 5% CO2, followed by addition of 5 μl medium containing compound dilutions at 5-fold their final intended concentration. Dose-response effects were assessed by 3-fold serial dilutions of the test compound, starting at 10 μM. […] Assay plates were imaged using the appropriate filter sets on the Cellomics VTi automated fluorescence microscopy platform (ThermoFisher Scientific) and the population average of the number of NUT-foci per nucleus is quantified using the Cellomics Spot Detection BioApplication image analysis algorithm (ThermoFisher Scientific). The effect of a particular test compound concentration on NUT-foci number and intensity is expressed as percentage of the value obtained for cells treated with vehicle only (DMSO, 0.1% final concentration), which was set as 100.

A further test addresses BRD2 (His-Brd2(60-472)) (Homo sapiens (Human), UniProt P25440). Description: TR-FRET in-vitro binding assay for BRD2. To be noted: acetyl-histone H4 peptide. How it is done:
All assays were performed in 384 well microtiter plates. Each assay plate contained 8-point serial dilutions for 40 test compounds, plus 16 high- and 16 low controls. Liquid handling and incubation steps were done on an Innovadyne Nanodrop Express equipped with a robotic arm (Thermo CatX, Perkin Elmer/Caliper Twister II) and an incubator (Liconic STX40, Thermo Cytomat 2C450). The assay plates were prepared by addition of 50 nl per well of compound solution in 90% DMSO HummingBird nanodispenser (Zinsser Analytic). The assay was started by stepwise addition of 4.5 μl per well of bromo domain protein (50 mM HEPES, pH 7.5, 0.005% Tween20, 0.1% BSA, 50 mM NaCl, 45 nM His-Brd2(60-472) or 45 nM His-Brd3(20-477) or 45 nM His-Brd4(44-477) all proteins produced in-house) and 4.5 μl per well of peptide solution (50 mM HEPES, pH 7.5, 0.005% Tween20, 0.1% BSA, 50 mM NaCl, 60 nM acetyl-histone H4 (AcK 5, 8, 12, 16) (Biosyntan GmbH)). Reactions were incubated at 30° C. for 35 minutes. Subsequently 4.5 μl per well detection mix (50 mM HEPES, pH 7.5, 0.005% Tween20, 0.1% BSA, 50 mM NaCl, 3 nM Eu-labeled anti-His6 antibody, 21 nM streptavidin-allophycocyanin) were added. After 35 minutes incubation at 30° C., plates were measured in a Perkin Elmer EnVision multilabel reader. Concentrations causing 50% inhibition (1050) values were determined from percent inhibition values at different compound concentrations by non-linear regression analysis.
Test compounds were dissolved in DMSO (10 mM) and transferred into 1.4 mL flat bottom or V-shaped Matrix tubes carrying a unique 2D matrix. The stock solutions were stored at […] if not used immediately. For the test procedure the vials were defrosted and identified by a scanner whereby a working sheet was generated that guided the subsequent working steps. Compound dilutions were made in 96 well plates. This format enabled the assay of maximally 40 individual test compounds at 8 concentrations (single points) including 4 reference compounds, if desired (known BET inhibitors from the prior art, for this and other assays of the type disclosed herein). The dilution protocol included the production of “pre-dilution plates”, “master plates” and “assay plates”.
Pre-dilution plates: 96 polypropylene well plates were used as pre-dilution plates. A total of 4 pre-dilution plates were prepared including 10 test compounds each on the plate positions A1-A10, one standard compound at A11 and one DMSO control at A12. All dilution steps were done on a HamiltonSTAR robot. Master plates: 30 μL of individual compound dilutions including standard compound and controls of the 4 “pre-dilution plates” were transferred into a 384 “master plate” including the following concentrations 10000, 3003, 1000, 300, 100, 30, 10 and 3 μM, respectively in 90% of DMSO. Assay plates: Identical “assay plates” were then prepared by pipetting 50 nL each of compound dilutions of the “master plates” into 384-well “assay plates” by means of a HummingBird 384-channel dispenser. These plates were used directly for the assay which was performed in a total volume of 13.55 μL. This led to a final compound concentration of 37, 11, 3.7, 1.1, 0.37, 0.11, 0.037 and 0.011 μM and a final DMSO concentration of 0.37% in the assay. Cell Growth Inhibition Assay
Background: Time-resolved FRET reads energy transfer from a long-lived donor to a nearby acceptor.

Each structure is given as a SMILES string.

BRD2 (His-Brd2(60-472)), sequence (P25440 60-472, species assumed): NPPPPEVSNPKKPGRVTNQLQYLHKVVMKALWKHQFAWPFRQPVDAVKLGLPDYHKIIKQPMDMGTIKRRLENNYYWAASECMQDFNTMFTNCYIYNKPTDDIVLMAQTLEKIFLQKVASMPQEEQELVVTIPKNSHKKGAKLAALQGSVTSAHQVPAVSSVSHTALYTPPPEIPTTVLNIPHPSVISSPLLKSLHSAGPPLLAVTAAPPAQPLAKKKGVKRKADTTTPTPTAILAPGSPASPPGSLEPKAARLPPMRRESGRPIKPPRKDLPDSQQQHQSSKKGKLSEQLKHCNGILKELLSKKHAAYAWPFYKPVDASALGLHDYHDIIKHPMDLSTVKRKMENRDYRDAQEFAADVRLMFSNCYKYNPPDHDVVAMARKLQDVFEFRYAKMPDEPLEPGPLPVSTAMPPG

Turning to `Cc1nn(C2CC2)c2c1C(=O)N(c1cc(C)c(=O)n(C)c1)C2c1ccc(Cl)cc1` (stereo not drawn) [Example 11, 6-(4-chlorophenyl)-1-cyclopropyl-5-(1,5-dimethyl-6-oxo-1,6-dihydropyridin-3-yl)-3-methyl-5,6-dihydropyrrolo[3,4-c]pyrazol-4(1H)-one], the IC50 against BRD4-NUT-fusion stood at 41.7 nM; at BRD2 (His-Brd2(60-472)) it was 38 nM.

As for `Cc1nn(C(C)C)c2c1C(=O)N(c1cc(C)c(=O)n(C)c1)C2c1ccc(Cl)cc1` (stereo not drawn) [Example 12, 6-(4-chlorophenyl)-5-(1,5-dimethyl-6-oxo-1,6-dihydropyridin-3-yl)-1-isopropyl-3-methyl-5,6-dihydropyrrolo[3,4-c]pyrazol-4(1H)-one], the results for the half-maximal inhibitory concentration (IC50) on BRD4-NUT-fusion and on BRD2 (His-Brd2(60-472)) were 48.4 nM and 52 nM, respectively.

As to `COc1ncccc1-c1nn(C)c2c1C(=O)N(c1cc(C)c(=O)n(C)c1)C2c1ccc(Cl)cc1` (stereo not drawn) [Example 15, 6-(4-chlorophenyl)-5-(1,5-dimethyl-6-oxo-1,6-dihydropyridin-3-yl)-3-(2-methoxypyridin-3-yl)-1-methyl-5,6-dihydropyrrolo[3,4-c]pyrazol-4(1H)-one], the values for the IC50 on BRD4-NUT-fusion and on BRD2 (His-Brd2(60-472)) were 60.7 nM and 70 nM, respectively.

Regarding `COc1ncccc1-c1nn(C)c2c1C(=O)N(c1cc(C)c(=O)n(C)c1)[C@@H]2c1ccc(Cl)cc1` [Example 16, (R)-6-(4-chlorophenyl)-5-(1,5-dimethyl-6-oxo-1,6-dihydropyridin-3-yl)-3-(2-methoxypyridin-3-yl)-1-methyl-5,6-dihydropyrrolo[3,4-c]pyrazol-4(1H)-one], the half-maximal inhibitory concentration (IC50) on BRD4-NUT-fusion is 60.6 nM; on BRD2 (His-Brd2(60-472)), 48.5 nM.

`COc1ncccc1-n1nc2c(c1C)C(=O)N(c1cc(C)c(=O)n(C)c1)C2c1ccc(Cl)cc1` (stereo not drawn) [Example 17b, 6-(4-chlorophenyl)-5-(1,5-dimethyl-6-oxo-1,6-dihydropyridin-3-yl)-2-(2-methoxypyridin-3-yl)-3-methyl-5,6-dihydropyrrolo[3,4-c]pyrazol-4(2H)-one]: the half-maximal inhibitory concentration (IC50) at BRD4-NUT-fusion was 40.3 nM; on BRD2 (His-Brd2(60-472)), 53 nM.

In the case of `CCOc1ncccc1-n1nc2c(c1C)C(=O)N(c1cc(C)c(=O)n(C)c1)C2c1ccc(Cl)cc1` (stereo not drawn) [Example 18b, 6-(4-chlorophenyl)-5-(1,5-dimethyl-6-oxo-1,6-dihydropyridin-3-yl)-2-(2-ethoxypyridin-3-yl)-3-methyl-5,6-dihydropyrrolo[3,4-c]pyrazol-4(2H)-one], the IC50 on BRD4-NUT-fusion was determined as 21.7 nM; at BRD2 (His-Brd2(60-472)) it was 35 nM.

`Cc1nn(-c2cccnc2F)c2c1C(=O)N(c1cc(C)c(=O)n(C)c1)C2c1ccc(Cl)cc1` (stereo not drawn) [Example 19, 6-(4-chlorophenyl)-5-(1,5-dimethyl-6-oxo-1,6-dihydropyridin-3-yl)-1-(2-fluoropyridin-3-yl)-3-methyl-5,6-dihydropyrrolo[3,4-c]pyrazol-4(1H)-one]: the IC50 against BRD4-NUT-fusion came to 66.7 nM; on BRD2 (His-Brd2(60-472)), 80 nM.

On to `COc1ccc(-n2nc3c(c2C)C(=O)N(c2cc(C)c(=O)n(C)c2)C3c2ccc(Cl)cc2)cn1` (stereo not drawn) [Example 20a, 6-(4-chlorophenyl)-5-(1,5-dimethyl-6-oxo-1,6-dihydropyridin-3-yl)-2-(6-methoxypyridin-3-yl)-3-methyl-5,6-dihydropyrrolo[3,4-c]pyrazol-4(2H)-one], for which the half-inhibitory concentration (IC50) at BRD4-NUT-fusion came out at 73.6 nM; at BRD2 (His-Brd2(60-472)), 61 nM.

Turning to `COc1ccc(-n2nc(C)c3c2C(c2ccc(Cl)cc2)N(c2cc(C)c(=O)n(C)c2)C3=O)cn1` (stereo not drawn) [Example 20b, 6-(4-chlorophenyl)-5-(1,5-dimethyl-6-oxo-1,6-dihydropyridin-3-yl)-1-(6-methoxypyridin-3-yl)-3-methyl-5,6-dihydropyrrolo[3,4-c]pyrazol-4(1H)-one], the results for the IC50 against BRD4-NUT-fusion and at BRD2 (His-Brd2(60-472)) were 57.6 nM and 49 nM, respectively.
